Experimental data as given in PubChem BioAssay (NCI).
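Following 48 hours of exposure in 96-well plates, responses at five concentrations were used to interpolate endpoints linearly. TGI is the concentration that stops growth completely.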

What was measured:
Experiment in all cases: DTP human tumour cell line panel, 48 h
[1] = system: 786-0 renal
[2] = system: A498 renal
[3] = system: ACHN renal
[4] = system: BT-549 breast
[5] = system: CAKI-1 renal
[6] = system: CCRF-CEM leukemia
[7] = system: COLO 205 colon
[8] = system: DU-145 prostate
[9] = system: EKVX NSCLC
[10] = system: HCC-2998 colon
[11] = system: HCT-116 colon
[12] = system: HCT-15 colon
[13] = system: HOP-62 NSCLC
[14] = system: HOP-92 NSCLC
[15] = system: HS 578T breast
[16] = system: HT29 colon
[17] = system: IGROV1 ovarian
[18] = system: KM12 colon
[19] = system: LOX IMVI melanoma
[20] = system: MALME-3M melanoma
[21] = system: MDA-MB-231 breast
[22] = system: MDA-MB-435
[23] = system: MDA-N
[24] = system: NCI-H226 lung
[25] = system: NCI-H23 lung
[26] = system: NCI-H460 lung
[27] = system: NCI-H522 lung
[28] = system: NCI/ADR-RES ovarian
[29] = system: OVCAR-3 ovarian
[30] = system: OVCAR-4 ovarian
[31] = system: OVCAR-8 ovarian
[32] = system: PC-3 prostate
[33] = system: SF-268 CNS
[34] = system: SK-MEL-2 melanoma
[35] = system: SK-MEL-28 melanoma
[36] = system: SK-MEL-5 melanoma
[37] = system: SN12C renal
[38] = system: SNB-19 CNS
[39] = system: SNB-75 CNS
[40] = system: SW-620 colon
[41] = system: T-47D breast
[42] = system: TK-10 renal
[43] = system: U251 CNS
[44] = system: UACC-257 melanoma
[45] = system: UACC-62 melanoma
[46] = system: UO-31 renal
[47] = system: A549 NSCLC
[48] = system: HL-60(TB) leukemia
[49] = system: K-562 leukemia
[50] = system: M14 melanoma
[51] = system: MCF7 breast
[52] = system: MOLT-4 leukemia
[53] = system: OVCAR-5 ovarian
[54] = system: RPMI-8226 leukemia
[55] = system: RXF 393 renal
[56] = system: SF-295 CNS
[57] = system: SF-539 CNS
[58] = system: SK-OV-3 ovarian

SMILES: O=c1oc2ccccc2c(O)c1C(c1ccc(O)cc1)c1c(O)c2ccccc2oc1=O
- TGI [1]: > 100 µM
- TGI [2]: > 100 µM
- TGI [3]: > 100 µM
- TGI [4]: > 100 µM
- TGI [5]: > 100 µM
- TGI [6]: > 100 µM
- TGI [7]: > 100 µM
- TGI [8]: > 100 µM
- TGI [9]: > 100 µM
- TGI [10]: > 100 µM
- TGI [11]: > 100 µM
- TGI [12]: > 100 µM
- TGI [13]: > 100 µM
- TGI [14]: > 100 µM
- TGI [15]: > 100 µM
- TGI [16]: > 100 µM
- TGI [17]: > 100 µM
- TGI [18]: > 100 µM
- TGI [19]: > 100 µM
- TGI [20]: > 100 µM
- TGI [21]: 77.7 µM
- TGI [22]: > 100 µM
- TGI [23]: > 100 µM
- TGI [24]: > 100 µM
- TGI [25]: > 100 µM
- TGI [26]: > 100 µM
- TGI [27]: 62.8 µM
- TGI [28]: > 100 µM
- TGI [29]: > 100 µM
- TGI [30]: > 100 µM
- TGI [31]: > 100 µM
- TGI [32]: > 100 µM
- TGI [33]: 67.2 µM
- TGI [34]: > 100 µM
- TGI [35]: > 100 µM
- TGI [36]: > 100 µM
- TGI [37]: > 100 µM
- TGI [38]: > 100 µM
- TGI [39]: 97.8 µM
- TGI [40]: > 100 µM
- TGI [41]: > 100 µM
- TGI [42]: > 100 µM
- TGI [43]: > 100 µM
- TGI [44]: > 100 µM
- TGI [45]: > 100 µM
- TGI [46]: > 100 µM

SMILES: C/C(=N/S(=O)(=O)c1ccc(Cl)c(Cl)c1)OCC(C)(C)C
- TGI [1]: > 100 µM
- TGI [2]: > 100 µM
- TGI [47]: > 100 µM
- TGI [3]: > 100 µM
- TGI [4]: > 100 µM
- TGI [5]: > 100 µM
- TGI [6]: > 100 µM
- TGI [7]: > 100 µM
- TGI [8]: > 100 µM
- TGI [9]: > 100 µM
- TGI [11]: > 100 µM
- TGI [12]: > 100 µM
- TGI [48]: > 100 µM
- TGI [13]: > 100 µM
- TGI [14]: > 100 µM
- TGI [15]: > 100 µM
- TGI [16]: > 100 µM
- TGI [17]: > 100 µM
- TGI [49]: > 100 µM
- TGI [18]: > 100 µM
- TGI [19]: > 100 µM
- TGI [50]: > 100 µM
- TGI [20]: > 100 µM
- TGI [51]: > 100 µM
- TGI [21]: > 100 µM
- TGI [22]: > 100 µM
- TGI [23]: > 100 µM
- TGI [52]: > 100 µM
- TGI [24]: > 100 µM
- TGI [25]: > 100 µM
- TGI [26]: > 100 µM
- TGI [27]: > 100 µM
- TGI [28]: > 100 µM
- TGI [29]: > 100 µM
- TGI [30]: > 100 µM
- TGI [53]: > 100 µM
- TGI [31]: > 100 µM
- TGI [32]: > 100 µM
- TGI [54]: > 100 µM
- TGI [55]: > 100 µM
- TGI [33]: > 100 µM
- TGI [56]: > 100 µM
- TGI [57]: > 100 µM
- TGI [34]: > 100 µM
- TGI [35]: > 100 µM
- TGI [36]: > 100 µM
- TGI [58]: > 100 µM
- TGI [37]: > 100 µM
- TGI [38]: > 100 µM
- TGI [39]: > 100 µM
- TGI [40]: > 100 µM
- TGI [41]: > 100 µM
- TGI [42]: > 100 µM
- TGI [43]: > 100 µM
- TGI [44]: > 100 µM
- TGI [45]: > 100 µM
- TGI [46]: > 100 µM
